Laboratory results published in PMC7272617 (Scientific Reports, 2020).
Values after ≈ are worked out from the molar mass of the structure shown. Where a SMILES comes first, the peptide text is derived from it.

Key:
[1] = system: all Gram-negative strains; test: Mean MIC and therapeutic index, Gram-negative strains; type: cell-based; details: 7 Gram-negative strains of Table 3
Procedure: (§1) The antimicrobial activity of the peptides was determined against both Gram-positive and -negative bacteria including 14 MDR P. aeruginosa clinical isolates from Bhumibol Adulyadej Hospital (Tables 1 and 3). The minimal inhibitory concentration (MIC) of each peptide was measured according to a modification of the National Committee for Clinical Laboratory Standards (NCCLS) broth microdilution method as previously described. Briefly, bacterial cells in mid-log phase were cultured in Müeller-Hinton broth (MHB) and then diluted to 10^7 CFU/ml. […] Plates were incubated at 37 °C for 24 h, and MICs were defined as the lowest concentration of peptide that prevented visible turbidity. Cultures without peptides and uninoculated MHB were employed as positive and negative controls, respectively. Colony count assays were performed to determine the minimal bactericidal concentrations (MBCs) for determination of time-killing activity. As previously described, a 50 μl aliquot from each non-turbid well identified in the MIC determination experiment was spread on agar plates.
(§2) To further evaluate the global activity of these peptides, the geometric mean (GM) MIC and the therapeutic index (TI) of each were calculated (Table 3). The TI, a widely used parameter to evaluate cell selectivity and specificity of antimicrobial agents, was calculated as the ratio of MHC (the concentration that causes 10% hemolysis) to the geometric mean of MICs[22]. Higher TIs indicated greater cell selectivity and specificity.

[2] = system: all Gram-positive strains; test: Mean MIC and therapeutic index, Gram-positive strains; type: cell-based; details: 5 Gram-positive strains of Table 3
Procedure: as §1, §2

[3] = system: Escherichia coli ATCC 25922; details: ATCC 25922, 24 h
[4] = system: Escherichia coli O157:H7 MT strain; details: E. coli O157:H7 MT strain; MHB, 37 °C, 24 h
[5] = system: Vibrio cholera O1 Inaba DMST 16261; details: MHB, 37 °C, 24 h
[6] = system: Staphylococcus aureus ATCC 25923; details: ATCC 25923, 24 h
[7] = system: Staphylococcus epidermidis ATCC 12228; details: ATCC 12228, 24 h
[8] = system: Enterococcus faecalis ATCC 29212; details: ATCC 29212, 24 h
[9] = system: Listeria monocytogenes 10403 s; details: 10403 s, 24 h
[10] = system: Gram-negative and -positive bacterial strains; test: MIC against the panel of Gram-negative and -positive bacterial strains; type: cell-based; details: 12 strains of Table 3; result in words
[11] = system: Pseudomonas aeruginosa ATCC 27853; details: ATCC 27853, 24 h
[12] = system: Salmonella Typhimurium ATCC 13311; details: ATCC 13311, 24 h
[13] = system: Acinetobacter baumannii MT strain; details: MT strain, 24 h

Compound | GM (Gr.− strains): geometric mean of MIC values from all Gram-negative strains [1] [µg/mL] | GM (Gr.+ strains): geometric mean of MIC values from all Gram-positive strains [2] [µg/mL] | MIC [3] [µg/mL] | MIC [4] [µg/mL] | MIC [5] [µg/mL] | MIC [6] [µg/mL] | MIC [7] [µg/mL] | MIC [8] [µg/mL] | MIC [9] [µg/mL] | antibacterial activity against tested microorganisms [10] | MIC [11] [µg/mL] | MIC [12] [µg/mL] | MIC [13] [µg/mL]
CC[C@H](C)[C@H](NC(=O)[C@H](CCCNC(=N)N)NC(=O)[C@H](CCCCN)NC(=O)[C@H](C)NC(=O)[C@@H](NC(=O)[C@@H](N)CCCCN)[C@@H](C)CC)C(=O)N[C@@H](Cc1c[nH]c2ccccc12)C(=O)N[C@@H](CCCCN)C(=O)N[C@H](C(=O)N[C@@H](CC(C)C)C(=O)N[C@@H](CCCNC(=N)N)C(=O)N[C@@H](CCCNC(=N)N)C(=O)N[C@@H](CCCNC(=N)N)C(=O)N[C@@H](CC(C)C)C(=O)N[C@@H](Cc1ccccc1)C(=O)N[C@@H](CCCNC(=N)N)C(=O)N[C@@H](CCCNC(=N)N)C(=O)N[C@H](C(=O)N[C@@H](CCCCN)C(=O)N[C@@H](CCCCN)C(=O)N[C@H](C(=O)N[C@@H](C)C(=O)NCC(N)=O)C(C)C)C(C)C)[C@@H](C)CC [P7A3] (H-KIAKRIWKILRRRLFRRVKKVAG-NH2; N-terminus assumed) | 42.97 | 12.50 | 15.63 (≈ 5.41 µM) | 250 (≈ 86.5 µM) | 7.81 (≈ 2.7 µM) | 15.63 (≈ 5.41 µM) | 3.91 (≈ 1.35 µM) | 31.25 (≈ 10.8 µM) | 3.91 (≈ 1.35 µM) | – | – | – | –
CC[C@H](C)[C@H](NC(=O)[C@H](CCCNC(=N)N)NC(=O)[C@H](CCCCN)NC(=O)[C@H](C)NC(=O)[C@@H](NC(=O)[C@@H](N)CCCCN)[C@@H](C)CC)C(=O)N[C@@H](Cc1c[nH]c2ccccc12)C(=O)N[C@@H](CCCCN)C(=O)N[C@H](C(=O)N[C@@H](CC(C)C)C(=O)N[C@@H](CCCNC(=N)N)C(=O)N[C@@H](CCCNC(=N)N)C(N)=O)[C@@H](C)CC [P7] (H-KIAKRIWKILRR-NH2; N-terminus assumed) | 28.46 | 121.09 | 15.63 (≈ 9.89 µM) | 125 (≈ 79.1 µM) | 31.25 (≈ 19.8 µM) | 62.5 (≈ 39.6 µM) | 3.91 (≈ 2.47 µM) | >250 | 7.81 (≈ 4.94 µM) | potent antibacterial activity | 7.81 (≈ 4.94 µM) | 7.81 (≈ 4.94 µM) | 7.81 (≈ 4.94 µM)
CC[C@H](C)[C@H](NC(=O)[C@H](CCCNC(=N)N)NC(=O)[C@H](CCCCN)NC(=O)[C@H](C)NC(=O)[C@@H](NC(=O)[C@@H](N)CCCCN)[C@@H](C)CC)C(=O)N[C@@H](Cc1c[nH]c2ccccc12)C(=O)N[C@@H](CCCCN)C(=O)N[C@H](C(=O)N[C@@H](CC(C)C)C(=O)N[C@@H](CCCNC(=N)N)C(=O)N[C@@H](CCCNC(=N)N)C(=O)N[C@@H](CCCNC(=N)N)C(=O)N[C@@H](CC(C)C)C(N)=O)[C@@H](C)CC [PA-14] (H-KIAKRIWKILRRRL-NH2; N-terminus assumed) | 14.23 | 30.86 | 15.63 (≈ 8.45 µM) | 62.5 (≈ 33.8 µM) | 7.81 (≈ 4.22 µM) | 15.63 (≈ 8.45 µM) | 3.91 (≈ 2.11 µM) | 125 (≈ 67.6 µM) | 1.95 (≈ 1.05 µM) | – | 3.91 (≈ 2.11 µM) | 1.95 (≈ 1.05 µM) | 3.91 (≈ 2.11 µM)
CC[C@H](C)[C@H](NC(=O)[C@H](CCCNC(=N)N)NC(=O)[C@H](CCCCN)NC(=O)[C@H](C)NC(=O)[C@@H](NC(=O)[C@@H](N)CCCCN)[C@@H](C)CC)C(=O)N[C@@H](Cc1c[nH]c2ccccc12)C(=O)N[C@@H](CCCCN)C(=O)N[C@H](C(=O)N[C@@H](CC(C)C)C(=O)N[C@@H](CCCNC(=N)N)C(=O)N[C@@H](CCCNC(=N)N)C(=O)N[C@@H](CCCNC(=N)N)C(=O)N[C@@H](CC(C)C)C(=O)N[C@@H](Cc1ccccc1)C(N)=O)[C@@H](C)CC [PA-15] (H-KIAKRIWKILRRRLF-NH2; N-terminus assumed) | 7.54 | 9.77 | – | 15.63 (≈ 7.83 µM) | 3.91 (≈ 1.96 µM) | 7.81 (≈ 3.91 µM) | – | 31.25 (≈ 15.7 µM) | 1.95 (≈ 0.977 µM) | – | 7.81 (≈ 3.91 µM) | 1.95 (≈ 0.977 µM) | –
CC[C@H](C)[C@H](NC(=O)[C@H](CCCNC(=N)N)NC(=O)[C@H](CCCCN)NC(=O)[C@H](C)NC(=O)[C@@H](NC(=O)[C@@H](N)CCCCN)[C@@H](C)CC)C(=O)N[C@@H](Cc1c[nH]c2ccccc12)C(=O)N[C@@H](CCCCN)C(=O)N[C@H](C(=O)N[C@@H](CC(C)C)C(=O)N[C@@H](CCCNC(=N)N)C(=O)N[C@@H](CCCNC(=N)N)C(=O)N[C@@H](CCCNC(=N)N)C(=O)N[C@@H](CC(C)C)C(=O)N[C@@H](Cc1ccccc1)C(=O)N[C@@H](CCCNC(=N)N)C(N)=O)[C@@H](C)CC [PA-16] (H-KIAKRIWKILRRRLFR-NH2; N-terminus assumed) | 13.67 | 7.03 | 7.81 (≈ 3.63 µM) | 62.5 (≈ 29 µM) | 3.91 (≈ 1.82 µM) | 7.81 (≈ 3.63 µM) | – | 15.63 (≈ 7.26 µM) | – | – | 7.81 (≈ 3.63 µM) | 1.95 (≈ 0.906 µM) | 7.81 (≈ 3.63 µM)
CC[C@H](C)[C@H](NC(=O)[C@H](CCCNC(=N)N)NC(=O)[C@H](CCCCN)NC(=O)[C@H](C)NC(=O)[C@@H](NC(=O)[C@@H](N)CCCCN)[C@@H](C)CC)C(=O)N[C@@H](Cc1c[nH]c2ccccc12)C(=O)N[C@@H](CCCCN)C(=O)N[C@H](C(=O)N[C@@H](CC(C)C)C(=O)N[C@@H](CCCNC(=N)N)C(=O)N[C@@H](CCCNC(=N)N)C(=O)N[C@@H](CCCNC(=N)N)C(=O)N[C@@H](CC(C)C)C(=O)N[C@@H](Cc1ccccc1)C(=O)N[C@@H](CCCNC(=N)N)C(=O)N[C@@H](CCCNC(=N)N)C(N)=O)[C@@H](C)CC [PA-17] (H-KIAKRIWKILRRRLFRR-NH2; N-terminus assumed) | 15.63 | 12.11 | 15.63 (≈ 6.77 µM) | 62.5 (≈ 27.1 µM) | 7.81 (≈ 3.38 µM) | 15.63 (≈ 6.77 µM) | 3.91 (≈ 1.69 µM) | 31.25 (≈ 13.5 µM) | 1.95 (≈ 0.845 µM) | – | – | 3.91 (≈ 1.69 µM) | –
CC[C@H](C)[C@H](NC(=O)[C@H](CCCNC(=N)N)NC(=O)[C@H](CCCCN)NC(=O)[C@H](C)NC(=O)[C@@H](NC(=O)[C@@H](N)CCCCN)[C@@H](C)CC)C(=O)N[C@@H](Cc1c[nH]c2ccccc12)C(=O)N[C@@H](CCCCN)C(=O)N[C@H](C(=O)N[C@@H](CC(C)C)C(=O)N[C@@H](CCCNC(=N)N)C(=O)N[C@@H](CCCNC(=N)N)C(=O)N[C@@H](CCCNC(=N)N)C(=O)N[C@@H](CC(C)C)C(=O)N[C@@H](Cc1ccccc1)C(=O)N[C@@H](CCCNC(=N)N)C(=O)N[C@@H](CCCNC(=N)N)C(=O)N[C@H](C(N)=O)C(C)C)[C@@H](C)CC [PA-18] (H-KIAKRIWKILRRRLFRRV-NH2; N-terminus assumed) | 45.76 | 12.11 | 31.25 (≈ 13 µM) | 250 (≈ 104 µM) | 7.81 (≈ 3.24 µM) | 15.63 (≈ 6.49 µM) | 3.91 (≈ 1.62 µM) | 31.25 (≈ 13 µM) | 1.95 (≈ 0.81 µM) | – | – | 3.91 (≈ 1.62 µM) | 15.63 (≈ 6.49 µM)
